# Test results reported in article PMC10672221, “The Plant Defensin Ppdef1 Is a Novel Topical Treatment for Onychomycosis” (Journal of Fungi, 2023).
# Positions of bridges follow the written chain, without caps; N, C: chain ends. No end group written: not given here.
# Experiments:
# [1] = systemic (oral), after a 12 week treatment; cited from earlier work
# From the text: These infections are hard to treat, can be painful, and have a cosmetic impact on the patient. Current topical treatments for onychomycosis require daily or weekly application for 48 weeks, and even these exhaustive treatment regimens produce low complete cure rates. Until 2014, […]® and its generic equivalents, with the active ingredient ciclopirox, were the only prescription strength topical onychom ... || Several systemic (oral) treatments have been approved for the treatment of onychomycosis. […] The FDA reported in its review of efinaconazole (Center for Drug Evaluation and Research; […] Fungicidal activity in the presence of keratin is hypothesised to correlate with the clinical efficacy for the topical onychomycosis products, ciclopirox and efinaconazole. The complete cu ...
# C. albicans cells = experiment: Propidium iodide uptake in response to antifungal treatment (flow cytometry); assay type: cell-based, Candida albicans; details: 30 min; for treated cells no longer viable (PI positive): 50 µg/mL; for treated cells no longer viable (PI positive) / treated cells no longer viable / cells killed (PI positive): 30 °C, 1/2 PDB, flow cytometry; for treated cells no longer viable / cells killed (PI positive): 100 µg/mL
# Procedure: A culture of C. albicans cells (OD600 = 0.3 in ½ PDB) was prepared. Aliquots of the culture (300 µL) were transferred to 1.5 mL tubes and treated with 3.125, 6.25, 12.5, 25, 50, or 100 µg/mL of Ppdef1, efinaconazole, ciclopirox, terbinafine, or tavaborole. Water or dimethyl sulfoxide (DMSO) was added to the untreated control samples. Propidium iodide (2 µL of 1 mg/mL stock) was also added to each sample, and the cells were incubated for 30 min at 30 °C before they were pelleted using centrifugation, resuspended in 300 µL of PBS and transferred to the wells of a 96-well plate. Cells were assessed for fluorescence using the PI channel on a FACS Canto 2 flow cytometer (BD). Cells with fluorescence of more than 185 rfu were considered positive for PI uptake.
# [2] = Nail penetration assay (Franz cell nail adaptors); assay type: in vitro ADME, human; details: for average penetration per day at Days 7-10: Ppdef1 1% (six replicates), terbinafine 1% in same vehicle (four replicates); for maximum level of penetration on any one day: 10 days daily application, efinaconazole 10% as Jublia (maximum on day 8); for applied dose that penetrated the nails on all days, except for terbinafine on Days 7 and 9: efinaconazole 10%
# Procedure: Nail penetration assays were conducted essentially as described by Hui et al.. Human fingernail clippings (minimum size: 6.5 mm × 6.5 mm) were hydrated by placing them on folded Kimwipe tissues soaked in 3 mL of phosphate-buffered saline (PBS, pH 7.4) for 3 h at 26 °C. After hydration, nails were placed in plastic Franz cell nail adaptors (Perme Gear, Hellerton, PA, USA) with cotton wool (20 mg ± 2 mg) pre-soaked with 100 µL of phosphate-buffered saline with Tween 0.05% (PBST, pH 7.4) placed underneath the nail. Nails were sealed into the adaptors with silicone and checked for leaks by applying 10 µL of water to the top of the nail for at least 20 min (RT). Ppdef1 drug product (10 µL; 1% Ppdef1 in 50 mM acetate buffer, pH 4.0, 20% isopropanol, 20% propylene glycol), terbinafine (1% in 50 mM acetate buffer, pH 4.0, 20% isopropanol, 20% propylene glycol), or efinaconazole (formulated as Jublia (Valeant)) was applied to the top of the nail, and nails were incubated at 26 °C for 16 h in a Petri dish. A moist Kimwipe was added to the Petri dish to maintain humidity. After 16 h, the cotton wool was removed from the underside of the nail and set aside for analysis. The top of the nail was washed to collect excess test compound that had not penetrated the nail. First, a dry cotton swab was used to collect any excess liquid on the nail. A second swab soaked in 100 µL of water was then wiped over the top of the nail. An additional dry swab was used to collect any remaining liquid. A fresh piece of cotton wool soaked in 100 µL PBST was added to the underside of the nail. The nail was incubated at 26 °C for 1 h to allow for rehydration. Additional test solution (10 µL) was applied, and the process was repeated daily for 10 days. To quantify the amount of test item that had penetrated the nail, cotton wool removed from the underside of the nail was washed twice with 500 mM CaCl2 (200 µL) and then once with 0.1% TFA (200 µL). The cotton wool was incubated with the wash solution for 10 min at 26 °C for each wash. Cotton wool washes were pooled and analysed using RP-HPLC (300SB-C8 analytical column attached to a 1200 series HPLC (Agilent, Santa Clara, CA, USA)). Ethics approval for use of the nail clippings was granted by the La Trobe University Human Ethics Committee for the collection of nail clippings (approval number: HEC18414).
# [3] = tested on: T. rubrum growing on human nail fragments; experiment: Cell killing of T. rubrum growing on nail fragments (PrestoBlue); assay type: cell-based, Trichophyton rubrum
# Procedure: Human nail fragments (~2 mm × 2 mm) were sterilized in water at 99 °C for 4 h. A single nail fragment was placed into each well of a 96-well microtiter plate along with 100 µL of sterile water. T. rubrum conidia (100 µL) were added to obtain a final concentration of 1.5 × 10^5 conidia/mL. Control wells were inoculated with water only. Plates were then incubated for 96 h at 28 °C without shaking to allow T. rubrum to colonise the nail material. After the nail fragments were colonised with T. rubrum, they were treated with Ppdef1 or efinaconazole at a final concentration of 100 or 200 µg/mL. Six replicate wells were used per treatment, and two independent replicates were performed. As efinaconazole was dissolved in ethanol, all wells treated with Ppdef1 were adjusted with ethanol to a final concentration of 1% ethanol. Plates were then incubated for 20 h at 28 °C.
# After the 20 h incubation, 20 µL of PrestoBlue® (Thermo Fisher, Scoresby, Victoria, Australia) was added to each well, and the mixture was transferred to a black-wall, clear-bottom microplate. […] The reaction was allowed to proceed for 24 h before fluorescence was measured in an M5e spectrophotometer (Molecular Devices, San Jose, CA, USA) using an excitation wavelength of 560 nm and an emission wavelength of 590 nm as described in the manufacturer’s instructions (Thermo Fisher, Scoresby, Victoria, Australia).
# [4] = terbinafine 1%, four replicates
# [5] = 10 µL daily, 26 °C, RP-HPLC, average of six replicates
# [6] = 10 µL daily, 26 °C, RP-HPLC, six replicates
"maximum level of penetration on any one day [2, 4]","applied dose that penetrated the nails on all days, except for terbinafine on Days 7 and 9 ([2]; terbinafine 1%)",Molecule,cure rate [1],treated cells no longer viable (PI positive) (C. albicans cells),treated cells no longer viable / cells killed (PI positive) (C. albicans cells),"average penetration per day at Days 7-10 ([2]; 10 µL daily, 26 °C, RP-HPLC)",further results
7.0%,less than 5%,CN(C/C=C/C#CC(C)(C)C)Cc1cccc2ccccc12 [terbinafine],38%,no significant cell death,less than 25%,3.8%,"applied dose that penetrated the nails on Days 7 and 9 ([2]; terbinafine 1%): less than 10%; penetration observed on most days ([2]; terbinafine 1%, daily for 10 days, four replicates): approximately 3.0%"
–,–,"AKVCTKPSKFFKGLCGTDGACTTACRKEGLHSGYCQLKGFLNSVCVCRKHC (disulfide 4-51, 15-35, 21-45, 25-47) [Ppdef1]",–,–,–,26.1%,"applied dose that penetrated the nail, first day ([2]; 10 µL applied daily, 26 °C, 16 h, cotton wool under nail, RP-HPLC, 1% Ppdef1 in 50 mM acetate pH 4.0, 20% isopropanol, 20% propylene glycol, average of six replicates): 13.3%; applied dose that penetrated the nail, Day 2 [2, 5]: 3.2%; applied dose that penetrated the nail, Day 3 [2, 5]: 2.0%; average penetration per day over Days 4, 5, and 6 [2, 6]: 13.1%; penetration by Day 7 [2, 6]: approximately 26%; applied dose that penetrated the nail on Days 7-10 ([2]; Ppdef1 1%): Greater than 20%; amount passed through the nail ([2]; daily application of 10 µL of a 1% solution for 10 days): more than 150 µg"
2.2%,less than 5%,C=C1CCN([C@H](C)[C@](O)(Cn2cncn2)c2ccc(F)cc2F)CC1 [efinaconazole],–,no significant cell death,–,–,"cell death (PI uptake) (C. albicans cells; any of the tested concentrations (3.125-100 µg/mL)): did not induce a significant cell death; hyphal biomass killed relative to the untreated control ([3]; 200 µg/mL, keratin as sole nutrient source, 1% ethanol, 28 °C, PrestoBlue): little impact; decrease in viable fungi ([3]; either concentration (100 or 200 µg/mL)): did not cause a significant decrease; average penetration per day on Days 1-7, 9, and 10 ([2]; efinaconazole 10% (Jublia), four replicates): approximately 0.5%"
–,–,CCC(C)n1ncn(-c2ccc(N3CCN(c4ccc(OCC5COC(Cn6cncn6)(c6ccc(Cl)cc6Cl)O5)cc4)CC3)cc2)c1=O (stereo not shown) [itraconazole],14%,–,–,–,–
–,–,OB1OCc2cc(F)ccc21 [tavaborole],–,no significant cell death,less than 25%,–,–
–,–,Cc1cc(C2CCCCC2)n(O)c(=O)c1 [ciclopirox],–,~ 20%,58.7%,–,–
